Laboratory results: patent publication US20190183900A1, “COMPOSITION FOR PROLIFERATION, DIFFERENTIATION PROMOTION, OR SENESCENCE INHIBITION OF STEM CELLS, CONTAINING JAK1 INHIBITOR AS ACTIVE INGREDIENT” (UNIVERSITY OF ULSAN FOUNDATION FOR INDUSTRY COOPERATION, priority 2016, published 2019)

Assays:
stem cells [1] = assay: Western blotting of senescence, stemness, proliferation and TLR3 signaling proteins; type: cell-based; conditions: JAK1 inhibitor pretreated 2 hours before poly IC 1 ug/ml, 2 days after poly IC
Protocol: More specifically, the stem cells were plated in a 10 cm dish (3×10^5 cells/dish) and treated with poly IC (1 ug/ml) one day later. […] After 2 days of poly IC treatment, western blotting was performed for analyzing the protein expression. For this, the cells were treated with RIPA lysis buffer (1% Np-40, 0.5% Na-deoxycholate, 0.4% SDS, 0.15 M NaCl, 0.05 M Tris-HCl (pH 8), Halt Protease and Phosphatase Inhibitor Cocktail (78440, Thermo Scientific)) and reacted in ice for 30 minutes to extract the cells. The cell lysate was centrifuged and the supernatant was collected and quantified using bicinchoninic acid protein assay kit (23225, Thermo Scientific). 10 ug of the protein extract was separated by 12% SDS-PAGE and transferred to a nitrocellulose membrane. After reacting for 1 h in blocking buffer (0.1% Tween 20, 5% BSA in tris buffered saline) at room temperature (RT), the primary antibody was treated and reacted overnight at 4° C. […] After washing three times with TBST solution, peroxidase-conjugated secondary antibody was reacted for 1 hour at RT and protein bands were analyzed using C-DiGit Blot Scanner (LI-COR).

stem cells [2] = assay: real time PCR of senescence, stemness, proliferation and TLR3 signaling genes; type: cell-based; conditions: pre-treatment before poly IC
Protocol: The present inventors have confirmed the expression of proteins involved in proliferation and differentiation promotion of stem cell and stemness increase according to tofacitinib treatment using real time PCR. For this, cells were treated with TRIzol reagent to lyse the cells, and treated with chloroform to separate the aqueous solution layer containing the RNA. The separated aqueous solution was treated with isopropanol to precipitate RNA and centrifuged to extract RNA only. […] Real-time PCR was performed using the CFX Connect Real-Time PCR Detection System (Bio-rad) and primers used were shown in Table 1. Relative mRNA expression levels were analyzed using the comparative threshold cycles (2-^Ct) method.

stem cells [3] = assay: BrdU assay of cell survival rate after poly IC; type: cell-based; conditions: tofacitinib 1 ug/ml pretreated 2 hours before poly IC 1 ug/ml; BrdU ELISA 2 days after poly IC
Protocol: More specifically, cells were plated in 96 wells (1×10^3 cells/well) and treated with poly IC (1 μg/ml) one day later. […] After 2 days of poly IC treatment, cell survival rate was measured using BrdU cell proliferation ELISA (11647229001, Roche). For this, the BrdU labeling solution was treated at 10 μl/well for 4 hours at 37° C. Then, fixdenat buffer was treated by 200 ul/well for 30 minutes to immobilize the cells and reacted with 100 ul/well of anti BrdU-POD solution for 90 minutes. Thereafter, 100 ul of the substrate solution was treated, the OD value at 370 nm wavelength was measured by ELISA, and the cell survival rate was plotted.

stem cells [4] = conditions: FACS analysis and real time PCR; pre-treatment of tofacitinib before poly IC
Protocol: More specifically the stem cells were treated with trypsin/EDTA and separated into single cells and mouse anti-human HLA-ABC (555553, BD Biosciences) was reacted at RT for 1 hour and washed three times and then analyzed using a FACS calibur instrument (BD Biosciences).

stem cells [5] = assay: SA-b-gal staining of poly IC-induced inflammatory senescence; type: cell-based; conditions: tofacitinib 1 ug/ml pretreated 2 hours before poly IC 1 ug/ml; measured 2 days after poly IC
Protocol: More specifically, stem cells were plated in 6 wells (2×10^4 cells/well) and treated with poly IC (1 ug/ml) one day later. […] After 2 days of the poly IC treatment, the degree of senescence was measured using senescence cells histochemical staining kit (CS0030, Sigma). For this, the plate was washed twice with PBS and fixed with fixation buffer (2% formaldehyde, 0.2% glutaraldehyde, 7.04 mM Na2HPO4, 1.47 mM KH2PO4, 0.137 M NaCl, and 2.68 mM KCl) for 6 minutes and reacted with staining buffer (6 mM Potassium Ferricyanide, 6 mM Potassium Ferrocyanide, 1 mg/ml X-gal Solution in phosphate buffer (pH 6)) at 37° C. for 24 hours. The number of b-galactoxidase-positive cells was measured by microscopic observation and the degree of cellular senescence was shown in a graph.

stem cells [6] = assay: real time PCR of TGF-b and HGF, proteins that inhibit T cell activity; type: cell-based; conditions: pre-treatment of tofacitinib before poly IC
Protocol: For this, cells were treated with TRIzol reagent to lyse the cells, and treated with chloroform to separate the aqueous solution layer containing the RNA. The separated aqueous solution was treated with isopropanol to precipitate RNA and centrifuged to extract RNA only. The extracted RNA was quantified using nanodrop. 2 ug of RNA was synthesized using TOPscript cDNA synthesis kit (RT200, Enzynomics) as a cDNA mixture and used as a template for real time PCR. […] Relative mRNA expression levels were analyzed using the comparative threshold cycles (2-^Ct) method.

Structure (SMILES) | expression of proteins associated with senescence (PCNA), stemness (EZH2, BMI-1), proliferation (survivin, CyclinD1) (stem cells [1]) | increase in expression of TLR3 signaling-related proteins (TLR3, IL6) (stem cells [1]) | increase in expression of TLR3 signaling-related proteins (TLR3, IL6) (stem cells [2]) | mRNA expression of the protein associated with senescence (PCNA), stemness (EZH2, BMI-1) and proliferation (survivin, CyclinD1) (stem cells [2]) | cell survival rate by cellular senescence induced by poly IC (stem cells [3]) | increase of immunogenicity-related proteins HLA-A and HLA-B by poly IC treatment (stem cells [4]) | inflammatory senescence induced by poly IC (b-galactoxidase-positive cells) (stem cells [5]) | decrease of TGF-b and HGF by treatment of poly IC (stem cells [6])
O=C(Nc1nc2cccc(-c3ccc(CN4CCS(=O)(=O)CC4)cc3)n2n1)C1CC1 [filgotinib] | less decreased | less increased | less increased | less decreased |  |  |  | 
C[C@@H]1CCN(C(=O)CC#N)C[C@@H]1N(C)c1ncnc2[nH]ccc12 [tofacitinib] | less decreased | less increased | less increased | less decreased | less decreased | less increased | significantly reduced | less decreased
